According to US7666354B2, “Composition for sterilization comprising ω-alkoxyperoxycarboxylic acid” (FUJIFILM Corporation, priority 2004, dated 2010):
Read-outs that look alike come from different tables or passages of the source. Blank lines part the entries; values can stand above or below the compound they belong to.

Tests used:
[1] = Stability Evaluation 1: peracid concentration after mixing carboxylic acid and 50% aqueous hydrogen peroxide (potassium iodide/sodium thiosulfate titration); assay type: physicochemical; settings: for peracid concentration in composition, 3 days after mixing: day 3; for peracid concentration in composition, 6 days after mixing: day 6; for peracid concentration in composition, 22 days after mixing: day 22
Source text: A carboxylic acid (30 mmol) and 50% aqueous hydrogen peroxide (45 mmol) were mixed, and concentration of generated peracid was quantified by potassium iodide/sodium thiosulfate titration as described in Example 1 at a constant time interval. As the carboxylic acid, 3-methoxypropionic acid and 3-ethoxypropionic acid were used. As a control for comparison, methoxyacetic acid was used.
Numbers in Table 3 indicates peracid concentration (mM) in compositions.

[2] = tested on: Spores of Bacillus subtilis IFO3134; experiment: Evaluation of antimicrobial activity against spores (liquid culture and agar culture after a given reaction time); assay type: cell-based; settings: for colony formation, 15 sec / colony formation, 1 min / colony formation, 5 min: Agar culture; for colony formation, 15 sec / bacterial proliferation, 15 sec: reaction time 15 sec; for colony formation, 1 min / bacterial proliferation, 1 min: reaction time 1 min; for colony formation, 5 min / bacterial proliferation, 5 min: reaction time 5 min; for bacterial proliferation, 15 sec / bacterial proliferation, 1 min / bacterial proliferation, 5 min: Liquid culture
Description: Antimicrobial activity of the composition of the present invention against spores was evaluated.
Spores of Bacillus subtilis IFO3134 was prepared based on the preparation method of a spores stock solution described in Notification from Ministry of Health, Labour and Welfare, “Ei-nyu(Milk Hygiene)” No. 10, Jan. 29, 1996 (Heisei 8). […] The bacteria were suspended in sterilized water (3 ml), and the suspension was heated at 65° C. for 30 minutes under shaking at 160 rpm to kill trophozoites. Resulting suspension was centrifuged at 3000 rpm, and the supernatant was discarded. Sterilized water (3 ml) was added to the residue to obtain a stock solution of spores. A solution of 1.1×10^9 cfu/mL was prepared using the stock solution and subjected to the following evaluations of antimicrobial activity.
Evaluation of antimicrobial activity was conducted according to the method of Sakagami et al. (J. Antibact. Antifung. Agents., Vol. 26, 605-601, 1998). Specifically, an aqueous solution (225 μl) of each sample which was filtered with 0.2 μm paper filter was added with spores suspension (25 μl) prepared by the above described method. The mixture (concentration of bacteria: 1.1×10^8 cfu/mL) was reacted for a given period of time. From the reaction solution, 2 μL sample was corrected and added to 2 ml of SCDLP culture medium (Nissui Pharmaceutical Co., Ltd.). The medium was cultured at 37° C. under shaking at 160 rpm for 48 hours, and the presence of bacterial growth was examined. At the same time, the reaction solution (25 μL) was added to a mixture solution (225 μL) of 0.1N sodium thiosulfate and 1% catalase to inactivate a peroxycarboxylic acid and hydrogen peroxide. Resulting solution (100 μL) was inoculated to SCDLP culture agar medium (Nissui Pharmaceutical Co., Ltd., 25 mL/petri dish). The medium was cultured at 37° C. for 48 hours, and examined visually for colony formation.
Each solution prepared in Example 1, 2, 3-c, 3-f, and 3-j was diluted with distilled water for injection (Hikari pharmaceutical company) so as to obtain a solution of peroxycarboxylic acid at a concentration of 40 mM, which was used as composition 1, 2, 3, 24, and 28. The compositions were evaluated for their antimicrobial activity using the above described method. Aqueous hydrogen peroxide which contains hydrogen peroxide at a higher concentration than the hydrogen peroxide concentration of the above diluted solutions was separately evaluated in a similar manner, and results are also shown in Table 1.

spores = settings: recently reported; cited from earlier work
[3] = Stability Evaluation 2: pH dependency of peroxycarboxylic acid concentration; assay type: physicochemical; settings: 80 mM solution, FIG. 1
Description: (§1) A aqueous composition of the peroxycarboxylic acid which was obtained in the above described Synthesis of compound 3 (1.6 M, 100 ml) was diluted by addition of water (50 ml), and the mixture was left at 25° C. for 7 days. Quantification was conducted by potassium iodide/sodium thiosulfate titration as described in Example 1.
The aqueous composition was diluted with water to adjust the peroxycarboxylic acid concentration at 80 mM. Three solutions of pH 1.7, 3.0, and 5.0 were prepared, and peroxycarboxylic acid concentration was quantified by potassium iodide/sodium thiosulfate titration as described in Example 1 at a constant time intervals. The pH was adjusted by addition of dipotassium hydrogen phosphate. Assuming that peroxycarboxylic acid concentration of 80 mM is 100%, changes in peroxycarboxylic acid concentration are shown in FIG. 1.

[4] = Judgment whether the composition meets the criteria of the fifth class of hazardous material in the Fire Defense Law (thermal analysis, pressure container test); settings: aqueous composition: Compound 3 7% w/w, hydrogen peroxide 13% w/w, 3-propoxypropionic acid 32% w/w, water 48% w/w
Description: as §1, with “mixed with” for “diluted by addition of”, “ml) for dilution,” for “ml),”, “14 days. The solution was further kept at 4° C. for 10” for “7”
The above aqueous composition was subjected to judgment whether or not the composition meets the criteria of the fifth class of hazardous material in the Fire Defense Law.

[5] = tested on: Spores of Bacillus subtilis IFO3134; experiment: Evaluation of antimicrobial activity against spores (liquid culture and agar culture after a given reaction time); assay type: cell-based; settings: Table 2, Acecide, 40 mM peracetic acid
[6] = cited from earlier work
[7] = carboxylic acid 30 mmol + 50% aqueous hydrogen peroxide 45 mmol
[8] = Table 2, Acecide, 40 mM peracetic acid

peracid concentration in composition, 3 days after mixing [1, 7]: 160 mM | peracid concentration in composition, 6 days after mixing [1, 7]: 310 mM | peracid concentration in composition, 22 days after mixing [1, 7]: 700 mM
Structure (SMILES): CCOCCC(=O)OO [Compound 2, 3-ethoxyperoxypropionic acid]
stability: change of peracid concentration with passage of time (in words) [1]: any decrease in peracid amount was not observed | colony formation, 15 sec ([2]; peroxycarboxylic acid 40 mM): + | colony formation, 1 min ([2]; peroxycarboxylic acid 40 mM): + | colony formation, 5 min ([2]; peroxycarboxylic acid 40 mM): − | bacterial proliferation, 15 sec ([2]; peroxycarboxylic acid 40 mM): + | bacterial proliferation, 1 min ([2]; peroxycarboxylic acid 40 mM): + | bacterial proliferation, 5 min ([2]; peroxycarboxylic acid 40 mM): −

Structure (SMILES): O=CCCCC=O [glutaraldehyde]
sterilizing effect to spores (spores): weak sterilizing effect to spores

Structure (SMILES): CCOCCCC(=O)OO [Compound 24]
colony formation, 15 sec ([2]; peroxycarboxylic acid 40 mM): + | colony formation, 1 min ([2]; peroxycarboxylic acid 40 mM): + | colony formation, 5 min ([2]; peroxycarboxylic acid 40 mM): − | bacterial proliferation, 15 sec ([2]; peroxycarboxylic acid 40 mM): + | bacterial proliferation, 1 min ([2]; peroxycarboxylic acid 40 mM): + | bacterial proliferation, 5 min ([2]; peroxycarboxylic acid 40 mM): −

Structure (SMILES): O=C(CCOCCO)OO [reference compound]
antimicrobial activity compared with Composition 1, Composition 2 ([2]; evaluated in a similar manner to Example 4): lower than that of Composition 1, Composition 2 or the like

storage stability, pH 3.0 ([3]; pH 3.0): significantly high storage stability | pressure container test result [4]: rank 3 | thermal analysis result [4]: no hazardous
Structure (SMILES): CCCOCCC(=O)OO [Compound 3, peroxy-3-propoxypropionic acid]
change in peroxycarboxylic acid concentration (storage stability), pH lower than 2 ([3]; pH 1.7): a decrease in peroxycarboxylic acid concentration was faster | change in peroxycarboxylic acid concentration (storage stability), pH 5 or higher ([3]; pH 5.0): a decrease in peroxycarboxylic acid concentration was faster | colony formation, 15 sec ([2]; peroxycarboxylic acid 40 mM): + | colony formation, 1 min ([2]; peroxycarboxylic acid 40 mM): + | bacterial proliferation, 15 sec ([2]; peroxycarboxylic acid 40 mM): + | bacterial proliferation, 1 min ([2]; peroxycarboxylic acid 40 mM): + | bacterial proliferation, 5 min ([2]; peroxycarboxylic acid 40 mM): − | classification as fifth class of hazardous material in the Fire Defense Law [4]: did not classified in the fifth class of hazardous material

Structure (SMILES): OO [Hydrogen peroxide, reference compound]
colony formation, 15 sec ([2]; hydrogen peroxide 2000 mM): + | colony formation, 1 min ([2]; hydrogen peroxide 2000 mM): + | colony formation, 5 min ([2]; hydrogen peroxide 2000 mM): + | bacterial proliferation, 15 sec ([2]; hydrogen peroxide 2000 mM): + | bacterial proliferation, 1 min ([2]; hydrogen peroxide 2000 mM): + | bacterial proliferation, 5 min ([2]; hydrogen peroxide 2000 mM): +

Structure (SMILES): CC(=O)OO [peracetic acid]
colony formation, 15 sec [2, 8]: + | bacterial proliferation, 15 sec [2, 8]: + | colony formation, 1 min ([5]; Agar culture, reaction time 1 min): + | colony formation, 5 min ([5]; Agar culture, reaction time 5 min): − | bacterial proliferation, 1 min ([5]; Liquid culture, reaction time 1 min): + | bacterial proliferation, 5 min ([5]; Liquid culture, reaction time 5 min): −

Structure (SMILES): CCC(=O)OO [peroxypropionic acid]
sterilizing action ([6]; J. Hyg. Epid. Microbiol. Immun., 9, pp. 220-226 (1965)): effective sterilizing action

Structure (SMILES): COCCC(=O)OO [Compound 1, 3-methoxyperoxypropionic acid]
peracid concentration in composition, 3 days after mixing [1, 7]: 160 mM | peracid concentration in composition, 5 days after mixing ([1]; carboxylic acid 30 mmol + 50% aqueous hydrogen peroxide 45 mmol, day 5): 250 mM | peracid concentration in composition, 22 days after mixing [1, 7]: 650 mM | stability: change of peracid concentration with passage of time (in words) ([1]; summary of Table 3): any decrease in peracid amount was not observed | colony formation, 15 sec ([2]; peroxycarboxylic acid 40 mM): + | colony formation, 1 min ([2]; peroxycarboxylic acid 40 mM): + | colony formation, 5 min ([2]; peroxycarboxylic acid 40 mM): − | bacterial proliferation, 15 sec ([2]; peroxycarboxylic acid 40 mM): + | bacterial proliferation, 1 min ([2]; peroxycarboxylic acid 40 mM): + | bacterial proliferation, 5 min ([2]; peroxycarboxylic acid 40 mM): −

Structure (SMILES): COCC(=O)OO [peroxy-methoxyacetic acid, reference compound]
stability: change of peracid concentration with passage of time (in words) [1]: unstable | peracid concentration in composition, 3 days after mixing [1, 7]: 530 mM | peracid concentration in composition, 6 days after mixing [1, 7]: 540 mM | peracid concentration in composition, 10 days after mixing ([1]; carboxylic acid 30 mmol + 50% aqueous hydrogen peroxide 45 mmol, day 10): 380 mM | peracid concentration in composition, 14 days after mixing ([1]; carboxylic acid 30 mmol + 50% aqueous hydrogen peroxide 45 mmol, day 14): 340 mM | peracid concentration in composition, 24 days after mixing ([1]; carboxylic acid 30 mmol + 50% aqueous hydrogen peroxide 45 mmol, day 24): 210 mM | antibacterial effect compared with peracetic acid ([6]; J. Molecular Catalysis B: Enzymatic, 19-20, pp. 499-505 (2002)): weaker antibacterial effect than that of peracetic acid

Structure (SMILES): O=C(CCOCCCl)OO [Compound 28]
colony formation, 15 sec ([2]; peroxycarboxylic acid 40 mM): + | colony formation, 1 min ([2]; peroxycarboxylic acid 40 mM): + | colony formation, 5 min ([2]; peroxycarboxylic acid 40 mM): − | bacterial proliferation, 15 sec ([2]; peroxycarboxylic acid 40 mM): + | bacterial proliferation, 1 min ([2]; peroxycarboxylic acid 40 mM): + | bacterial proliferation, 5 min ([2]; peroxycarboxylic acid 40 mM): −
